Data taken from ChEMBL document CHEMBL1137926, “S-(2-(acylamino)phenyl) 2,2-dimethylpropanethioates as CETP inhibitors” (Bioorg Med Chem Lett, 2004).

These compounds were tested against T1, Cholesteryl ester transfer protein (Homo sapiens, UniProt P11597) (assay: In vitro inhibition of CETP activity was assessed by measuring the rate of [3H]- cholesteryl ester transfer from HDL to apoprotein B-containing lipoproteins in human plasma).
T1 sequence (P11597 whole entry): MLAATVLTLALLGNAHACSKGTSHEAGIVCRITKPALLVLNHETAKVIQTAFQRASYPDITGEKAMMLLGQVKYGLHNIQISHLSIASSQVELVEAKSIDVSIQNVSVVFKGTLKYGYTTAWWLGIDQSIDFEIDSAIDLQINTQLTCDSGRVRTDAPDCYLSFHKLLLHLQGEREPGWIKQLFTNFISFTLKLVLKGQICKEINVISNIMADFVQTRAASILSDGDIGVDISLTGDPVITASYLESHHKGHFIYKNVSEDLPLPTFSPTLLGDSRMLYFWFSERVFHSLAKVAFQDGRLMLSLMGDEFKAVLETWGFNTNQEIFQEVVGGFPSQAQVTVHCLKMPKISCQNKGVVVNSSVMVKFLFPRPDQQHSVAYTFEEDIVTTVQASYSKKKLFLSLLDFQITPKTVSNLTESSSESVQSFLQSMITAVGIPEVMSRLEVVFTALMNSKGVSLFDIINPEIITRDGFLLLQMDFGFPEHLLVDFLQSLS
Assay type: cell-free

SMILES | IC50 [µM]
CC(C)CCC1(C(=O)Nc2ccc(Cl)cc2SC(=O)C(C)(C)C)CCCCC1 | 10
CC(C)(C)C(=O)Sc1ccc(F)cc1NC(=O)C1(C)CCCCC1 | 70
Cc1ccc(SC(=O)C(C)(C)C)c(NC(=O)C2(CCC(C)C)CCCCC2)c1 | > 300
COc1ccc(SC(=O)C(C)(C)C)c(NC(=O)C2(C)CCCCC2)c1 | > 300
COc1ccc(SC(=O)C(C)(C)C)c(NC(=O)C2(CCC(C)C)CCCCC2)c1 | > 300
CC(C)(C)C(=O)Sc1ccc(C#N)cc1NC(=O)C1(C)CCCCC1 | 102
CC(C)(C)C(=O)Sc1cc(F)ccc1NC(=O)C1(C)CCCCC1 | 78
CC(C)(C)C(=O)Sc1c(F)cccc1NC(=O)C1(C)CCCCC1 | > 300
CC(C)CCC1(C(=O)Nc2cc(Cl)ccc2SC(=O)C(C)(C)C)CCCCC1 | 13
CC(C)CCC1(C(=O)Nc2cc(C(F)(F)F)ccc2SC(=O)C(C)(C)C)CCCCC1 | 13
CC(C)(C)C(=O)Sc1cc(F)cc(F)c1NC(=O)C1(C)CCCCC1 | > 300
